Measurements published in patent US11839601B2, “Cannabis-enriched enzymatically treated therapeutic composition” (priority 2016, dated 2023).

Experiment: Storage of honey / cannabis extract blends at room temperature, cannabinoid content after storage (conversion)
Assay type: physicochemical
Experimental: Cannabis plants of various strains were extracted using ethanol at ethanol to plant material weight/weight ratio of 8 to 1 for 30 minutes. Ethanol was removed from the extracts by evaporation under reduced pressure and the desolventized extracts were treated at 120° C. to reach complete decarboxylation. The cannabinoids content in each of the formed extracts was analyzed using HPLC.
Pure honey samples were blended with water and with the cannabis extracts to form what looked to the eye as homogeneous blends. Comparative blends were prepared by blending honey samples with extracts, but with no water addition. Cannabinoids concentrations in the blends were calculated, using the extracts compositions and the dilution by honey and water.
The blends were stored at room temperature for different durations. Then samples were taken and analyzed for cannabinoids content.

[1] = blend of 30 gr honey + 10 gr water + extract, 11 days
[2] = blend of 30 gr honey + 10 gr water + extract, glucose 64 %, 11 days, initial (calculated) THC 752 ppm, CBD 749 ppm
[3] = comparative blend of 30 gr honey + extract, no water, glucose 85 %, 18 days, initial (calculated) CBD 1150 ppm, THC 1050 ppm

Compound | Conversion [1] | Concentrations after storage [2] | Concentrations after storage [3] | Conversion of THC compared with CBD (water-diluted honey blends, 11 days)
C=C(C)[C@@H]1CCC(C)=C[C@H]1c1c(O)cc(CCCCC)cc1O [CBD, cannabidiol] | 27 | 547 | 1148 | 
CCCCCc1cc(O)c2c(c1)OC(C)(C)[C@@H]1CCC(C)=C[C@@H]21 [THC, tetrahydrocannabinol] | 45 | 414 | 1047 | greater than that of CBD
